The supplement of paper PMC12463676, “Small-molecule dissolution of stress granules by redox modulation benefits ALS models” (Nature Chemical Biology, 2025)

Columns and labels:
[1] = compound: NC(=O)CCCCC1CCSS1 [lipoamide]; assay: thermal stability z-score vs DMSO; higher = more thermally stabilized by treatment; details: HeLa, lipoamide concentration 100 µM
Experimental: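 Cellular thermal proteome profiling in HeLa cells. Cells were treated with 100 µM lipoamide for 1 h, with or without 1 mM arsenate for a further 1 h, then heated to ten temperatures (37-66.3 °C), and soluble protein was quantified by TMT mass spectrometry relative to 0.1% DMSO controls. The thermal stability score (sum of log2 fold changes minus the abundance score) was transformed to a z-score; mean of n = 3 experiments.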

[2] = compound: O=[As]([O-])(O)O.[K+] [potassium arsenate]; assay: as above; details: HeLa; arsenate concentration 1 mM
Experimental: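 Cellular thermal proteome profiling in HeLa cells treated with 1 mM arsenate for 1 h (DMSO pretreatment), heated to ten temperatures (37-66.3 °C). Soluble protein was quantified by TMT mass spectrometry relative to DMSO controls; the thermal stability score was transformed to a z-score; mean of n = 3 experiments.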

[3] = arsenate co-treatment: 1 mM arsenate 1 h
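Note: each temperature applied for 3 min, abundance score taken as mean log2 fold change at the two lowest temperatures, z-score obtained by mean subtraction and division by SD.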

PEO1 (UniProt Q96RR1)
thermal stability z-score [1, 3]: -0.0405
thermal stability z-score ([1]; arsenate co-treatment: none): 0.0511
thermal stability z-score [2]: 0.122

H6PD (UniProt O95479)
thermal stability z-score [1, 3]: -1.51
thermal stability z-score ([1]; arsenate co-treatment: none): -1.8
thermal stability z-score [2]: -0.472

ACP1 (UniProt P24666)
thermal stability z-score [1, 3]: -0.147
thermal stability z-score ([1]; arsenate co-treatment: none): -0.0266
thermal stability z-score [2]: -1.2

TRAPPC9 (UniProt Q96Q05)
thermal stability z-score [1, 3]: 0.0964
thermal stability z-score ([1]; arsenate co-treatment: none): -0.258
thermal stability z-score [2]: 0.167

GOLGA1 (UniProt Q92805)
UniProt Q92805, sequence (Q92805 whole entry): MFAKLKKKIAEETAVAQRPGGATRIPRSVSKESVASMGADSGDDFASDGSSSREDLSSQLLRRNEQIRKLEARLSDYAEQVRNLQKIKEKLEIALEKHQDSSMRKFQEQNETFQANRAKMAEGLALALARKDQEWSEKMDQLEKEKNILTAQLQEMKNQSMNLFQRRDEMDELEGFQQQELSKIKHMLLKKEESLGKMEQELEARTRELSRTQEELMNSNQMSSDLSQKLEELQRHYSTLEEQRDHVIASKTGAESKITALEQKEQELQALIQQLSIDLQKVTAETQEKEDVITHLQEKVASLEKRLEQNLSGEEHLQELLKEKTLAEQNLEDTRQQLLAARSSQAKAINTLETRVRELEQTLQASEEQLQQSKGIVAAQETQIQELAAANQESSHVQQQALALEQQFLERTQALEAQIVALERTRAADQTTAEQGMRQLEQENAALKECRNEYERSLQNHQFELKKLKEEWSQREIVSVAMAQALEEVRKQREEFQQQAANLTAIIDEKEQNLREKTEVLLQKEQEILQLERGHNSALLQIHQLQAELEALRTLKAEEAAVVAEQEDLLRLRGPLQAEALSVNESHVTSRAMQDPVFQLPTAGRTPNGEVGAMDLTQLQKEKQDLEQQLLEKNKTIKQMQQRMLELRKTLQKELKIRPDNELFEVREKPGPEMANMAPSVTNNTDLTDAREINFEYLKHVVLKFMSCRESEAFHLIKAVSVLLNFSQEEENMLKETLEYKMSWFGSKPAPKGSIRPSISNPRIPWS
thermal stability z-score [1, 3]: -0.956
thermal stability z-score ([1]; arsenate co-treatment: none): -0.268
thermal stability z-score [2]: 0.92

PRELID3B (UniProt Q9Y3B1)
thermal stability z-score [1, 3]: -0.72
thermal stability z-score ([1]; arsenate co-treatment: none): -0.844
thermal stability z-score [2]: -0.684

ERLEC1 (UniProt Q96DZ1)
thermal stability z-score [1, 3]: -2.84
thermal stability z-score ([1]; arsenate co-treatment: none): -2.07
thermal stability z-score [2]: 0.593

OLR1 (UniProt P78380)
thermal stability z-score [1, 3]: -0.828
thermal stability z-score ([1]; arsenate co-treatment: none): -0.797
thermal stability z-score [2]: 0.938

ANO10 (UniProt Q9NW15)
thermal stability z-score [1, 3]: -0.0281
thermal stability z-score ([1]; arsenate co-treatment: none): -0.122
thermal stability z-score [2]: -0.262

DXO (UniProt O77932)
thermal stability z-score [1, 3]: 0.186
thermal stability z-score ([1]; arsenate co-treatment: none): 0.216
thermal stability z-score [2]: 0.0286

PPP2CA (UniProt P67775)
thermal stability z-score [1, 3]: 0.297
thermal stability z-score ([1]; arsenate co-treatment: none): 0.0726
thermal stability z-score [2]: -1.92

FPGT (UniProt O14772)
thermal stability z-score [1, 3]: -0.111
thermal stability z-score ([1]; arsenate co-treatment: none): 0.182
thermal stability z-score [2]: 0.0182

PIK3R4 (UniProt Q99570)
UniProt Q99570, sequence (Q99570 whole entry): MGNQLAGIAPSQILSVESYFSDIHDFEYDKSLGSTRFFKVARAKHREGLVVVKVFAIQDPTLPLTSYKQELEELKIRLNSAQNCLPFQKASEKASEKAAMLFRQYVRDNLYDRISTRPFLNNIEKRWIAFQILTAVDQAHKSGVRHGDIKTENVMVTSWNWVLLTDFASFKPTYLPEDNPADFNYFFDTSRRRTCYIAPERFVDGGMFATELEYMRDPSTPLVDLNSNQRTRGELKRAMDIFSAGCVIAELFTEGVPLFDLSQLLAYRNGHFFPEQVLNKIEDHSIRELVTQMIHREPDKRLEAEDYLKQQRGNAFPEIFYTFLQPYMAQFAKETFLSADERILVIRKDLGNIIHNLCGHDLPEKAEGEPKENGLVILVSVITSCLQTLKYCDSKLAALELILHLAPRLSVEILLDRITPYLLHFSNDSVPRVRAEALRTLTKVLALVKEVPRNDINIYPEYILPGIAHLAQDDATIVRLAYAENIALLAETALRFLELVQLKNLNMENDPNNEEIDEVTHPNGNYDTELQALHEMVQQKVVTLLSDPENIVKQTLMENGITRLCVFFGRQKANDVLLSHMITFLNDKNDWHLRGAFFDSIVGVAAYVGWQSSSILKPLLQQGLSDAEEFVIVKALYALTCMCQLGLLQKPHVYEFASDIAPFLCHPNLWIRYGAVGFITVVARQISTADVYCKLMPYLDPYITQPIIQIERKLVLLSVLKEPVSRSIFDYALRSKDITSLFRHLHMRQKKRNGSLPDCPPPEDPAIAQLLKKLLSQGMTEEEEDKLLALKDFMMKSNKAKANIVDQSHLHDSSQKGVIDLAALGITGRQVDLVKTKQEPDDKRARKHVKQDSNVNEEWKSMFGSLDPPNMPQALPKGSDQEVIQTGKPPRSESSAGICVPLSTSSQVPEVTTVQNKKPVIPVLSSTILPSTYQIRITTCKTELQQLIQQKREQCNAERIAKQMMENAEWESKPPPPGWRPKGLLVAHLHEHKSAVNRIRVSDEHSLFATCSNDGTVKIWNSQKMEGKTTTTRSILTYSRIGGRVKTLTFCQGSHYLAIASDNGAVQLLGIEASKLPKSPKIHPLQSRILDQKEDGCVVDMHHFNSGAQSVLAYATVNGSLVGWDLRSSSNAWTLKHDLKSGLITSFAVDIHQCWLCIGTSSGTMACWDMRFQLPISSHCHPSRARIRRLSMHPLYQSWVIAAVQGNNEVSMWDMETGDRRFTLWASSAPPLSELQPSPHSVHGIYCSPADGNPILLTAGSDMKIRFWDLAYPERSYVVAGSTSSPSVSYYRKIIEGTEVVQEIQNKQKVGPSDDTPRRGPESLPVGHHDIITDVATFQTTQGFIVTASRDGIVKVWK
thermal stability z-score [1, 3]: -0.524
thermal stability z-score ([1]; arsenate co-treatment: none): -0.155
thermal stability z-score [2]: 0.184

SURF6 (UniProt O75683)
thermal stability z-score [1, 3]: -0.283
thermal stability z-score ([1]; arsenate co-treatment: none): -1.48
thermal stability z-score [2]: -2.85

PARP1 (UniProt P09874)
thermal stability z-score [1, 3]: -0.643
thermal stability z-score ([1]; arsenate co-treatment: none): 0.7
thermal stability z-score [2]: -2.03

LRRC42 (UniProt Q9Y546)
thermal stability z-score [1, 3]: -0.294
thermal stability z-score ([1]; arsenate co-treatment: none): -0.0469
thermal stability z-score [2]: -0.0558

ABCC2 (UniProt Q92887)
thermal stability z-score [1, 3]: 1.06
thermal stability z-score ([1]; arsenate co-treatment: none): 1.14
thermal stability z-score [2]: -0.256

SCCPDH (UniProt Q8NBX0)
thermal stability z-score [1, 3]: 0.163
thermal stability z-score ([1]; arsenate co-treatment: none): 0.0672
thermal stability z-score [2]: 0.139

PUS3 (UniProt Q9BZE2)
UniProt Q9BZE2, sequence (Q9BZE2 whole entry): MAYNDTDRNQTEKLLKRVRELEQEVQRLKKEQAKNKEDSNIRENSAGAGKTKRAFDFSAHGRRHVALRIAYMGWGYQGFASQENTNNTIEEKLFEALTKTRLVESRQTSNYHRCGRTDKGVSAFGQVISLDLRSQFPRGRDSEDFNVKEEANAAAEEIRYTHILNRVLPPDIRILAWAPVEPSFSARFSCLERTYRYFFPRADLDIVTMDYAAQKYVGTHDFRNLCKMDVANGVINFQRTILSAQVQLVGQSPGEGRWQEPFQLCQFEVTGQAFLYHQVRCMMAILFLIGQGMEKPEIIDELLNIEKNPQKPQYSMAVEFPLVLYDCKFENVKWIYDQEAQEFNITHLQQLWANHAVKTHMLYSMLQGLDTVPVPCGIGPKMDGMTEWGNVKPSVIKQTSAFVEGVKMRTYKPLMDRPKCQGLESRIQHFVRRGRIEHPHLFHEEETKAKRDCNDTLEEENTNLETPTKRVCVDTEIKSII
thermal stability z-score [1, 3]: 0.378
thermal stability z-score ([1]; arsenate co-treatment: none): -0.095
thermal stability z-score [2]: 2.26

GTF2F1 (UniProt P35269)
thermal stability z-score [1, 3]: -0.208
thermal stability z-score ([1]; arsenate co-treatment: none): -0.0526
thermal stability z-score [2]: -0.307

ABCF2 (UniProt Q9UG63)
thermal stability z-score [1, 3]: -0.652
thermal stability z-score ([1]; arsenate co-treatment: none): -0.279
thermal stability z-score [2]: 1.72

NEURL4 (UniProt Q96JN8)
thermal stability z-score [1, 3]: -0.125
thermal stability z-score ([1]; arsenate co-treatment: none): 0.0814
thermal stability z-score [2]: 0.00875

FBXO7 (UniProt Q9Y3I1)
UniProt Q9Y3I1, sequence (Q9Y3I1 whole entry): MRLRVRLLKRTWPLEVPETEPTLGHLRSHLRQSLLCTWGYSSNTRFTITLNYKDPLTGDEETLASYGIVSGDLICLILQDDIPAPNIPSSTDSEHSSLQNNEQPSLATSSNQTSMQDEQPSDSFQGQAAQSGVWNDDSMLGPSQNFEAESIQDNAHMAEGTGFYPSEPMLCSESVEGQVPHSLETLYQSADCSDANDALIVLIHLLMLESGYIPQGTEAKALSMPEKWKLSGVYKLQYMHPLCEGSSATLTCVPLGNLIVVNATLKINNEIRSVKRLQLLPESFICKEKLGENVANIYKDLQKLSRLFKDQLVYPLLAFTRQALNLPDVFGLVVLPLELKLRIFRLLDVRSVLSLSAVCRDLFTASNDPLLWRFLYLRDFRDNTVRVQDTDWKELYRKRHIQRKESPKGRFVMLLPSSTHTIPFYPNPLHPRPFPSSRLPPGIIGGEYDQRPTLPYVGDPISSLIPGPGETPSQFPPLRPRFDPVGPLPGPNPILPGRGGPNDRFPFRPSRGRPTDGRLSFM
thermal stability z-score [1, 3]: -0.692
thermal stability z-score ([1]; arsenate co-treatment: none): -0.573
thermal stability z-score [2]: -0.35

YTHDF3 (UniProt Q7Z739)
thermal stability z-score [1, 3]: -0.486
thermal stability z-score ([1]; arsenate co-treatment: none): 0.111
thermal stability z-score [2]: 0.174

PSMA3 (UniProt P25788)
thermal stability z-score [1, 3]: 0.613
thermal stability z-score ([1]; arsenate co-treatment: none): 0.719
thermal stability z-score [2]: 0.398

PPP1R7 (UniProt Q15435)
thermal stability z-score [1, 3]: 0.128
thermal stability z-score ([1]; arsenate co-treatment: none): -0.182
thermal stability z-score [2]: -0.488

GABPB1 (UniProt Q06547)
thermal stability z-score [1, 3]: 0.17
thermal stability z-score ([1]; arsenate co-treatment: none): 0.498
thermal stability z-score [2]: 5.01

NEGR1 (UniProt Q7Z3B1)
thermal stability z-score [1, 3]: 0.758
thermal stability z-score ([1]; arsenate co-treatment: none): -0.0845
thermal stability z-score [2]: -0.617

EFL1 (UniProt Q7Z2Z2)
thermal stability z-score [1, 3]: -0.245
thermal stability z-score ([1]; arsenate co-treatment: none): 0.0406
thermal stability z-score [2]: 0.402

AZIN1 (UniProt O14977)
thermal stability z-score [1, 3]: 0.745
thermal stability z-score ([1]; arsenate co-treatment: none): 0.806
thermal stability z-score [2]: 0.62

CAPG (UniProt P40121)
thermal stability z-score [1, 3]: 0.598
thermal stability z-score ([1]; arsenate co-treatment: none): 0.158
thermal stability z-score [2]: -0.915

CTPS2 (UniProt Q9NRF8)
thermal stability z-score [1, 3]: 0.218
thermal stability z-score ([1]; arsenate co-treatment: none): -0.0335
thermal stability z-score [2]: 0.109

UFM1 (UniProt P61960)
thermal stability z-score [1, 3]: 0.193
thermal stability z-score ([1]; arsenate co-treatment: none): 0.534
thermal stability z-score [2]: 0.181

SLC15A4 (UniProt Q8N697)
thermal stability z-score [1, 3]: 0.836
thermal stability z-score ([1]; arsenate co-treatment: none): 0.0913
thermal stability z-score [2]: -0.239

OTUB1 (UniProt Q96FW1)
thermal stability z-score [1, 3]: 0.513
thermal stability z-score ([1]; arsenate co-treatment: none): 0.823
thermal stability z-score [2]: -0.468

XRCC6 (UniProt P12956)
thermal stability z-score [1, 3]: -0.75
thermal stability z-score ([1]; arsenate co-treatment: none): 0.0871
thermal stability z-score [2]: -0.634

PBLD (UniProt P30039)
UniProt P30039, sequence (P30039 whole entry): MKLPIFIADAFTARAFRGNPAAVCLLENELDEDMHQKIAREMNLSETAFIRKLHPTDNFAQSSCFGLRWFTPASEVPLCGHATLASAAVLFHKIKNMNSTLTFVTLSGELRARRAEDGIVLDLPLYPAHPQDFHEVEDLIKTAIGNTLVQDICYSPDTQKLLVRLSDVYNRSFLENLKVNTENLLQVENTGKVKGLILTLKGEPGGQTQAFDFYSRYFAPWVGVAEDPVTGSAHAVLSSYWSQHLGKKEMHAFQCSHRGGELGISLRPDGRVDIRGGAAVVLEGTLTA
thermal stability z-score [1, 3]: -0.0252
thermal stability z-score ([1]; arsenate co-treatment: none): -0.218
thermal stability z-score [2]: -0.578

ATP2C1 (UniProt P98194)
thermal stability z-score [1, 3]: -1.04
thermal stability z-score ([1]; arsenate co-treatment: none): -0.728
thermal stability z-score [2]: -1.37

PPP3R1 (UniProt P63098)
thermal stability z-score [1, 3]: 0.0623
thermal stability z-score ([1]; arsenate co-treatment: none): 0.412
thermal stability z-score [2]: 0.32

STK4 (UniProt Q13043)
thermal stability z-score [1, 3]: 0.0921
thermal stability z-score ([1]; arsenate co-treatment: none): -0.0308
thermal stability z-score [2]: -0.188

UBE2J2 (UniProt Q8N2K1)
thermal stability z-score [1, 3]: -0.286
thermal stability z-score ([1]; arsenate co-treatment: none): -0.461
thermal stability z-score [2]: -0.0347

CCDC137 (UniProt Q6PK04)
thermal stability z-score [1, 3]: -0.531
thermal stability z-score ([1]; arsenate co-treatment: none): -0.941
thermal stability z-score [2]: -1.66

BDH2 (UniProt Q9BUT1)
thermal stability z-score [1, 3]: -0.0305
thermal stability z-score ([1]; arsenate co-treatment: none): -0.246
thermal stability z-score [2]: -0.414

B4GALT4 (UniProt O60513)
thermal stability z-score [1, 3]: -0.0137
thermal stability z-score ([1]; arsenate co-treatment: none): -0.101
thermal stability z-score [2]: 0.252

TRIP6 (UniProt Q15654)
thermal stability z-score [1, 3]: -1.35
thermal stability z-score ([1]; arsenate co-treatment: none): -0.966
thermal stability z-score [2]: -5.81

LPCAT2 (UniProt Q7L5N7)
thermal stability z-score [1, 3]: -0.337
thermal stability z-score ([1]; arsenate co-treatment: none): 0.245
thermal stability z-score [2]: 0.944

GMPS (UniProt P49915)
thermal stability z-score [1, 3]: -0.853
thermal stability z-score ([1]; arsenate co-treatment: none): -0.447
thermal stability z-score [2]: -0.42

SLK (UniProt Q9H2G2)
UniProt Q9H2G2, sequence (Q9H2G2 whole entry, looked up): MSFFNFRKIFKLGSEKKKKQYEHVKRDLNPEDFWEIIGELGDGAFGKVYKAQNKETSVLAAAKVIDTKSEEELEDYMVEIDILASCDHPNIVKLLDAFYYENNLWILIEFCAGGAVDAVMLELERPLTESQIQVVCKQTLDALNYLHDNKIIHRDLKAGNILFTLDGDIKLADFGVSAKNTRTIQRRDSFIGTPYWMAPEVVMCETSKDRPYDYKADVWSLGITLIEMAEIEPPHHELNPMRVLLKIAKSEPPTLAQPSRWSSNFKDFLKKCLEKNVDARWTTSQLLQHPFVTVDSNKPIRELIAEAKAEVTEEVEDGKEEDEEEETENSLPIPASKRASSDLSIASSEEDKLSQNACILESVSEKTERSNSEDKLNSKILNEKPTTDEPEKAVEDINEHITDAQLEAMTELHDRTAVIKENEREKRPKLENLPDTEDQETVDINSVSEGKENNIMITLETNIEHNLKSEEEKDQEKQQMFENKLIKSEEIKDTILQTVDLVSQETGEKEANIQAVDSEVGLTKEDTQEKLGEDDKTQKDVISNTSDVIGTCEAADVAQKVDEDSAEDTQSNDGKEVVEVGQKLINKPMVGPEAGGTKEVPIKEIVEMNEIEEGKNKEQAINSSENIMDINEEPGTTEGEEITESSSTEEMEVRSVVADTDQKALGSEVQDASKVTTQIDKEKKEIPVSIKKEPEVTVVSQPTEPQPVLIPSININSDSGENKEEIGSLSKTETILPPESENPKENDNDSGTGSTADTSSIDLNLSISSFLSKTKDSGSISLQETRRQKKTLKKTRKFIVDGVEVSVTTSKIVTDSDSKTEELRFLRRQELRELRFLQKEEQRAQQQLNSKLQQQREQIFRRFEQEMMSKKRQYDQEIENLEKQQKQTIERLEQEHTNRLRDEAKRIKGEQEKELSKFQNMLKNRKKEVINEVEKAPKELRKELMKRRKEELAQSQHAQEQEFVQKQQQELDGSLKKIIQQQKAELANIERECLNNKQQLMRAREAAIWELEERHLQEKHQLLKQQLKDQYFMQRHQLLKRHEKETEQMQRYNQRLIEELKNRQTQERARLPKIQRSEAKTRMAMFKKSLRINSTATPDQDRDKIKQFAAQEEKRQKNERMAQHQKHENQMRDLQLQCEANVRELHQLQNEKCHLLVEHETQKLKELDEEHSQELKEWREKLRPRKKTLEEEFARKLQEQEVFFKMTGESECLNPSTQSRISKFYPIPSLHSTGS
thermal stability z-score [1, 3]: 0.413
thermal stability z-score ([1]; arsenate co-treatment: none): 0.153
thermal stability z-score [2]: -0.419

RABEPK (UniProt Q7Z6M1)
UniProt Q7Z6M1, sequence (Q7Z6M1 whole entry): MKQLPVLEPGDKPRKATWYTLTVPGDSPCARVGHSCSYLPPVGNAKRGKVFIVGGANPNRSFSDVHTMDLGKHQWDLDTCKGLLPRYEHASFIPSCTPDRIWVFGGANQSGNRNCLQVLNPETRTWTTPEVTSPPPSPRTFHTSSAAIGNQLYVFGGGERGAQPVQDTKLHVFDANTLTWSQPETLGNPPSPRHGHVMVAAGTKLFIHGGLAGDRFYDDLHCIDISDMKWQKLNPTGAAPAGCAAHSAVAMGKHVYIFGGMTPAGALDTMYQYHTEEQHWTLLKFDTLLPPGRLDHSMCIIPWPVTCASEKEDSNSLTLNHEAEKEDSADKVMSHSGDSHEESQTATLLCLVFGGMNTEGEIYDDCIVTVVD
thermal stability z-score [1, 3]: 0.68
thermal stability z-score ([1]; arsenate co-treatment: none): 0.305
thermal stability z-score [2]: -0.0506

SNRNP27 (UniProt Q8WVK2)
thermal stability z-score [1, 3]: 0.418
thermal stability z-score ([1]; arsenate co-treatment: none): -0.21
thermal stability z-score [2]: 0.444

MRPL1 (UniProt Q9BYD6)
thermal stability z-score [1, 3]: -0.253
thermal stability z-score ([1]; arsenate co-treatment: none): -0.245
thermal stability z-score [2]: 0.374

GOLIM4 (UniProt O00461)
thermal stability z-score [1, 3]: -0.589
thermal stability z-score ([1]; arsenate co-treatment: none): -0.17
thermal stability z-score [2]: 0.283

NUP93 (UniProt Q8N1F7)
thermal stability z-score [1, 3]: -0.614
thermal stability z-score ([1]; arsenate co-treatment: none): -0.482
thermal stability z-score [2]: 0.232

FAM3A (UniProt P98173)
thermal stability z-score [1, 3]: 0.0593
thermal stability z-score ([1]; arsenate co-treatment: none): -0.109
thermal stability z-score [2]: 0.363

PAIP1 (UniProt Q9H074)
thermal stability z-score [1, 3]: 0.875
thermal stability z-score ([1]; arsenate co-treatment: none): 0.836
thermal stability z-score [2]: 0.0886
